Reference: paper PMC3032881 (Molecular Immunology, 2011)
Peptide text beside a SMILES is read from it.

Tests used:
[1] = target: HLA A*0201 on TAP deficient T2 cells (Homo sapiens, UniProt P04439, D140Y/D185E/D98H/E176V/E277Q/G131W/G231S/I119V/I121R/I166T/I218V/L300P/L318F/N151K/N90K/P208A/P217A/Q86G/Q94H/R138H/R169H/T345S); assay: T2-binding assay (cell surface pMHCI stabilization, FACS); format: cell-based
[2] = target: T1, HLA A*0201 (soluble recombinant pMHCI) (Homo sapiens, UniProt P04439, D140Y/D185E/D98H/E176V/E277Q/G131W/G231S/I119V/I121R/I166T/I218V/L300P/L318F/N151K/N90K/P208A/P217A/Q86G/Q94H/R138H/R169H/T345S); assay: Real time SPR pMHC stability assay; format: binding; details: pMHCI half-life converted from Langmuir dissociation analysis; BIAcore 3000, CM5 chip, ∼500 RUs, 10 μl/min, 15,000 s
T1 construct: made in house

Row | SMILES | EC50 [1] | Half-life [2]
1 | CC[C@H](C)[C@H](NC(=O)[C@H](Cc1c[nH]c2ccccc12)NC(=O)[C@H](CCSC)NC(=O)[C@H](CC(C)C)NC(=O)[C@H](CC(C)C)NC(=O)[C@@H](N)CO)C(=O)N[C@H](C(=O)N[C@@H](CCC(N)=O)C(=O)N[C@@H](CC(C)C)C(=O)O)[C@@H](C)O | 43.2 µM | 
2 | CC(C)C[C@H](NC(=O)[C@@H](N)C(C)C)C(=O)N[C@@H](CO)C(=O)N[C@@H](CC(N)=O)C(=O)N[C@@H](CC(=O)O)C(=O)N[C@H](C(=O)N[C@@H](CS)C(=O)N[C@@H](C)C(=O)N[C@@H](CCC(N)=O)C(=O)N[C@H](C(=O)O)C(C)C)C(C)C | 23.9 µM | 
3 | CC[C@H](C)[C@H](NC(=O)[C@@H](N)C(C)C)C(=O)N[C@@H](CO)C(=O)N[C@@H](CC(N)=O)C(=O)N[C@@H](CC(=O)O)C(=O)N[C@H](C(=O)N[C@@H](CS)C(=O)N[C@@H](C)C(=O)N[C@@H](CCC(N)=O)C(=O)N[C@H](C(=O)O)C(C)C)C(C)C (H-VISNDVCAQV-OH) | 50 µM | 
4 | CC(C)C[C@H](NC(=O)[C@@H](N)Cc1ccc(O)cc1)C(=O)N[C@@H](CCC(=O)O)C(=O)N1CCC[C@H]1C(=O)NCC(=O)N1CCC[C@H]1C(=O)N[C@H](C(=O)N[C@@H](C)C(=O)O)C(C)C (H-YLEPGPVA-OH; N-terminus and C-terminus assumed) |  | 5.8 h
